# Values joined by “and” are separate entries in the source; they are usually repeats but may differ in a detail not shown here. Equal entries are not always repeated.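 Compound exposure: 48 hours, 5 concentrations, 96-well plates. Abbreviation: GI50, concentration required for 50% inhibition of growth. At the TGI there is no net growth.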
# Legend:
# Test in all cases: inhibition of tumour cell growth, NCI panel, 48 h
# HCT-116 colon = system: HCT-116 colon
# MDA-MB-435 = system: MDA-MB-435
# NCI-H226 lung = system: NCI-H226 lung
# NCI-H460 lung = system: NCI-H460 lung
# NCI-H522 lung = system: NCI-H522 lung
# OVCAR-3 ovarian = system: OVCAR-3 ovarian
# SK-MEL-28 melanoma = system: SK-MEL-28 melanoma
# SK-OV-3 ovarian = system: SK-OV-3 ovarian
# TK-10 renal = system: TK-10 renal
# UACC-257 melanoma = system: UACC-257 melanoma
SMILES,GI50 (HCT-116 colon),TGI (HCT-116 colon),GI50 (MDA-MB-435),TGI (MDA-MB-435),GI50 (NCI-H226 lung),TGI (NCI-H226 lung),GI50 (NCI-H460 lung),TGI (NCI-H460 lung),GI50 (NCI-H522 lung),TGI (NCI-H522 lung),GI50 (OVCAR-3 ovarian),TGI (OVCAR-3 ovarian),GI50 (SK-MEL-28 melanoma),TGI (SK-MEL-28 melanoma),GI50 (SK-OV-3 ovarian),TGI (SK-OV-3 ovarian),GI50 (TK-10 renal),TGI (TK-10 renal),GI50 (UACC-257 melanoma),TGI (UACC-257 melanoma)
CC(C)=CCC(OC(=O)C=C(C)C)C1=CC(=O)c2c(O)ccc(O)c2C1=O (stereo not given),630 nM,2.68 µM and 1.04 µM,2090 nM,4.77 µM,1990 nM,4.02 µM and 6.72 µM,5.21 µM,21.1 µM and 6.53 µM,414 nM and 104 nM,1.84 µM and 0.231 µM,500 nM,2.07 µM and 2.62 µM,1010 nM,2.52 µM and 2.67 µM,21.2 µM,49.8 µM and 12.4 µM,0.738 µM,2.41 µM,1510 nM,4.15 µM and 2.5 µM
O=P1(S)OC[C@H]2O[C@@H]3[C@H](F)[C@@H]2OP(O)(=S)OC[C@H]2O[C@H]([C@H](F)[C@@H]2O1)n1cnc2c(ncnc21)NC/C=C/CNc1ncnc2c1ncn23 (stereo not given in full),> 100000 nM,> 100 µM,> 100000 nM,> 100 µM,652 nM,> 100 µM,> 100 µM,> 100 µM,> 100000 nM,> 100 µM,> 100000 nM,> 100 µM,> 100000 nM,> 100 µM,5.08 µM,> 100 µM,> 100 µM,> 100 µM,316 nM,> 100 µM
CC1=Nc2ccccc2/C1=C\c1c(C)[nH]c2ccccc12,,24.2 µM,,26.7 µM,,33.2 µM,,44.6 µM,,23.6 µM,,34.8 µM,,37.9 µM,,51.8 µM,,32.2 µM,,30.3 µM
O=c1[nH]c2nc(NC3CCOCC3)ncc2cc1Oc1ccc(F)cc1F,> 25000 nM,> 25 µM,> 25000 nM,> 25 µM,> 25000 nM,> 25 µM,> 25 µM,> 25 µM,> 25000 nM,> 25 µM,> 25000 nM,> 25 µM,> 25000 nM,> 25 µM,> 25 µM,> 25 µM,> 25 µM,> 25 µM,> 25000 nM,> 25 µM
CC(C)Cc1ccc(C(C)CC2=CCC(CN(C)C)C2=O)cc1 (stereo not given),,11.1 µM,,20.5 µM,,33.7 µM,,48.9 µM,,8.84 µM,,24.9 µM,,21.9 µM,,31.7 µM,,> 22.7 µM,,26.9 µM
CCOc1c(N=Nc2ccccc2Cl)c(-c2ccccc2)nn1C(=S)S,,> 100 µM,,> 100 µM,,93.8 µM,,> 100 µM,,89.9 µM,,90.1 µM,,> 100 µM,,> 100 µM,,> 100 µM,,> 100 µM
COc1ccc(C(O)c2cc3c(N)c(C(=O)Nc4cccc(Cl)c4)sc3nc2C)cc1 (stereo not given),921 nM,> 33.1 µM,37.1 nM,0.262 µM,1630 nM,> 43 µM,1.06 µM,5.53 µM,1050 nM,> 41.9 µM,843 nM,2.34 µM,1230 nM,55 µM,1.78 µM,> 40.5 µM,,> 50.3 µM,8600 nM,81 µM
CC(C)(C)OC(=O)NCCCn1c2c(c3ccccc3c1=O)C(=O)c1ccccc1-2,4710 nM,17.8 µM,> 100000 nM,> 100 µM,63500 nM,> 100 µM,33.9 µM,> 100 µM,42400 nM,> 100 µM,8730 nM,26.3 µM,,,25 µM,> 100 µM,22.3 µM,63 µM,75400 nM,> 100 µM
C1CC2CN(CCCN3CCOCC3)C(C1)O2 (stereo not given),,> 100 µM,,> 100 µM,,> 100 µM,,> 100 µM,,> 100 µM,,> 100 µM,,> 100 µM,,> 100 µM,,> 100 µM,,> 100 µM
Cc1ccc(S(=O)(=O)c2nc(-c3ccccc3)oc2S(C)=O)cc1 (stereo not given),1490 nM,2.89 µM,1530 nM,3.04 µM,1960 nM,4.73 µM,2.92 µM,8.98 µM,1120 nM,2.59 µM,1030 nM,2.35 µM,1950 nM,3.5 µM,15.3 µM,28.6 µM,1.45 µM,2.79 µM,1580 nM,3.11 µM
Cn1cc(C2=C(c3cn(C)c4ccc(Cl)cc34)C(=O)NC2=O)c2ccccc21,1520 nM,7.42 µM,645 nM,2.85 µM,4560 nM,17.4 µM,3.25 µM,8.9 µM,1340 nM,10.5 µM,1440 nM,6.88 µM,4260 nM,19.6 µM,2.87 µM,> 21 µM,5.55 µM,23 µM,5090 nM,16.8 µM
CCCCCCCCNCCC[C@@H](C)[C@H]1CC[C@H]2[C@@H]3[C@H](OCCCN)C[C@H]4C[C@H](OCCCN)CC[C@]4(C)[C@H]3C[C@H](OCCCN)[C@]12C,870 nM,2.61 µM,768 nM,2.5 µM,5210 nM,23.6 µM,,> 19.8 µM,2480 nM,7.16 µM,5000 nM,21.5 µM,776 nM,2.78 µM,4.72 µM,21.9 µM,1.79 µM,7.36 µM,2890 nM,8.64 µM
O=C1CC(c2[nH]nc3ccccc23)C(=O)N1c1ccccc1 (stereo not given),,> 100 µM,,> 100 µM,,> 100 µM,,> 100 µM,,> 100 µM,,> 100 µM,,> 100 µM,,> 100 µM,,> 100 µM,,> 100 µM
C=C1C(=O)OC2CC(C)C3CC(O)OC(OCC)C3(C)CC12 (stereo not given),,26 µM,,37.6 µM,,63.1 µM,,38.6 µM,,18.8 µM,,31.3 µM,,27.5 µM,,87.2 µM,,45.2 µM,,31.5 µM
Cc1cc(N=C2C=C(Br)C(=O)C(Br)=C2)cc(CN(CC(=O)O)CC(=O)O)c1O,,> 100 µM,,> 100 µM,,> 100 µM,,> 100 µM,,> 100 µM,,> 100 µM,,> 100 µM,,> 100 µM,,,,> 100 µM
